The values that follow come from patent US20120065181A1, “METHOD OF PROVIDING NEUROPROTECTION USING SUBSTITUTED PORPHYRINS” (priority 2009, published 2012).

Structures are written as SMILES.

The test system of one data set is TNF-α. Put plainly: Cerebral TNF-α level by ELISA after MCAO. It is filed as in vivo, rat. The note with it: 225 μg/kg IV 5 min after reperfusion, s.c. at 12 and 18 hrs post-MCAO; brains harvested 24 hrs post-MCAO; n=3; P=0.04. On the procedure:
(§1) Rats were subjected to 90 min middle cerebral artery occlusion. Five min after onset of reperfusion, rats were randomly treated with vehicle (n=3) or 225 μg/kg IV MnTnHex-2-PyP^5+ (n=3) followed by subcutaneous vehicle or 225 μg/kg MnTnHex-2-PyP^5+, respectively, at 12 and 18 hrs post-MCAO. Brains were harvested at 24 hrs post-MCAO and analyzed for TNF-α and IL-6 by fluorescent enzyme-linked immunosorbent assay. Whole cell lysates from the whole brain tissue were obtained at the end of each experiment according to manufacture's protocol (Roche) with light modification. In brief, about 100 mg of brain tissue, which was diced into small pieces using a clean razor blade on ice, was placed into a pre-chilled microcentrifuge tube and further processed with […] of ice-cold lysis buffer (50 mM Tris-HCl, pH 7.5, 150 mM NaCl, 1% Nonidet P40, 0.5% sodium deoxycholat, 0.1% SDS, protease inhibitors). Samples were homogenized 10 seconds and incubated for 30 minutes on ice. Homogenates were centrifuged at 14,000 g for 10 minutes at 4° C. Supernatants were collected and proteins were measured by a BCA Protein Assay Kit (Thermo Scientific). Cerebral levels of TNF-α and IL-6 were determined by rat specific ELISA kits (Thermo Scientific, IL) and normalized by the total amount of proteins (pg/mg).
For orientation: In an ELISA, binding on a coated surface is turned into a signal by an enzyme label.

Data set [1] deals with rats subjected to 90 min MCAO. Description: Cerebral infarct volume after 90 min MCAO. It is filed as in vivo, rat. The note with it: 7 days after MCAO. The source says: (§2) Male Wistar rats (250-275 gm; Harlan Sprague Dawley, Inc. Indianapolis, Ind.) were anesthetized with 64-mg/kg intraperitoneal sodium pentobarbital and positioned in a stereotactic head frame. The skin was infiltrated with 1.0% lidocaine and a midline scalp incision was made. A burr hole was drilled over the left hemisphere, 7.2 mm anterior to the interauralline and 1.4 mm lateral to the sagittal suture. An intracerebroventricular (ICV) cannula (33 gauge) was positioned with the tip in the left lateral ventricle and fixed in place with screws and cyanoacrylate. The incision was closed with suture around this assembly. After emergence from anesthesia, the animals were returned to their cages with free access to water and food.
Following 2-3 days recovery, rats were allowed access to water but fasted from food for 12 hours to standardize glycemic state. Rats were then anesthetized with isoflurane in O2. Following tracheal intubation, the lungs were mechanically ventilated to maintain normocapnia. A 22-g needle thermistor was percutaneously placed adjacent to the skull beneath the temporalis. Pericranial temperature was servoregulated at 37.5±0.1° C. by surface heating or cooling. The inspired isoflurane concentration was adjusted to 1.0-1.5% in 50% O2/balance N2. The tail artery was cannulated. The animals were then prepared for MCAO as previously described [Mackensen et al. J. Neurosci. 21:4582-4592, 2001; Longa et al. Stroke 20:84-91, 1989]. A midline cervical incision was made and the right common carotid artery was identified. […] The internal carotid artery (ICA) was dissected distally until the origin of the pterygopalatine artery was visualized. Following surgical preparation, a 20 min interval was allowed for physiologic stabilization.
Five min before MCAO onset, heparin (50 IU intra-arterial) was given to prevent intra-arterial thrombosis. A 0.25-mm diameter nylon monofilament, prepared with a silicone tip, was inserted into the ECA stump and passed distally through the ICA (20 mm from carotid bifurcation) until resistance was felt and the filament was secured. At MCAO onset, isoflurane was reduced to 0.8-1.0%.
After 90 min of MCAO, the occlusive filament was removed. The anesthetic state and pericranial temperature regulation were continued for an additional 100 min. The tail artery catheter was removed and the wounds were closed with suture. Isoflurane was discontinued. Upon recovery of the righting reflex, the tracheas were extubated and the animals were placed in an O2 enriched environment (FIO2=50%) for 1 hour. Animals were then randomized to experimental groups (see below).
Animals were weighed, anesthetized with isoflurane, and decapitated. The brains were removed, frozen at −40° C. in 2-methylbutane, and stored at −70° C. Infarct volume was measured by comparing the volume of histologically normal tissue observed in the ischemic hemisphere to the expected volume of normal tissue as derived from measurements of the contralateral, non-ischemic hemisphere [Swanson et al. J. Cereb. Blood Flow Metab. 10:290-293, 1990]. Serial quadruplicate […] coronal sections were taken using a cryotome at […] over the rostral-caudal extent of the infarct. The sections were dried and stained with hematoxylin and eosin. A section from each 660-μm interval was digitized with a video camera controlled by an image analyzer. […] With the observer blinded to experimental condition, the following regions of interest (ROI) were cursor outlined: non-infarcted ipsilateral cerebral cortex, non-infarcted ipsilateral subcortex, contralateral cerebral cortex, and contralateral subcortex. The area within each ROI (mm2) was determined by automated counting of calibrated pixels. Ipsilateral non-infarcted cortex and subcortex areas were subtracted from the corresponding contralateral ROI values to estimate the area of ischemic tissue damage to control for brain edema [Lin et al. Stroke 24:117-121, 1993]. […]

In data set [2] the test system is rats subjected to 90 min MCAO. Description: Neurologic score after 90 min middle cerebral artery occlusion (MCAO). The format is in vivo, rat. The note with it: then twice daily s.c. for 7 days.
Excerpt: as §2
Following 2-3 days recovery, rats were allowed access to water but fasted from food for 12 hours to standardize glycemic state. Rats were then anesthetized with isoflurane in O2. Following tracheal intubation, the lungs were mechanically ventilated to maintain normocapnia. A 22-g needle thermistor was percutaneously placed adjacent to the skull beneath the temporalis. Pericranial temperature was servoregulated at 37.5±0.1° C. by surface heating or cooling. […]
Rats were subjected to 90 min middle cerebral artery occlusion. […] The doses were repeatedly twice daily as subcutaneous injections for 7 days after which neurologic function was assessed as described above. […]

A further data set deals with IL-6. Put plainly: Cerebral IL-6 level by ELISA after MCAO. It is filed as in vivo, rat. Conditions: 225 μg/kg IV 5 min after reperfusion, s.c. at 12 and 18 hrs post-MCAO; brains harvested 24 hrs post-MCAO; n=3; P=0.04. On the procedure:
as §1

In a further data set the test system is NF-κB p65. Description: Immunoblot of nuclear samples with NF-κB p65-specific antibody after MCAO. It is filed as in vivo, rat. The note with it: 225 μg/kg IV after 90 min MCAO; ischemic brain harvested six hr later. On the procedure:
(§3) Intravenous MnTnHex-2-PyP^5+ (hexyl) decreases post-ischemic NF-κB DNA binding to a κB consensus oligo due inhibition of NF-κB p65 nuclear translocation. Data are from 4 rats subjected to 90 min MCAO and then treated with vehicle or MnTnHex-2-PyP^5+ (225 μg/kg IV). Six hr later, ischemic brain was harvested for EMSA performed on nuclear extracts ([…]). Upper gel (EMSA): D and E (without and with p65 antibody, respectively) are rat #1 (vehicle). F and G (without and with p65 antibody, respectively) are rat #2 (hexyl). H and I=vehicle rat #3 (with and without p65). J and K=rat #4 (hexyl) with and without p65. A-C are control lanes (A=probe only, B=positive control (HeLa nuclear extract), C=cold competitor). Two slower migrating DNA binding complexes are observed (shift). The proteins in the slower migrating complexes were identified by super shift analysis with […] of p65-specific antibody. […] Lower gel: […]) from the same nuclear samples were immunoblotted with NF-κB p65-specific antibody, confirming NF-κB inhibition by MnTnHex-2-PyP^5+.

The next data set has as its system NF-κB. Description: EMSA of NF-κB DNA binding in nuclear extracts of ischemic brain after MCAO. It is filed as in vivo, rat. The note with it: 225 μg/kg IV after 90 min MCAO, ischemic brain harvested six hr later, 2 treated vs 2 vehicle rats. On the procedure:
as §3
(In general: Mobility shift assays separate free from complexed probe on a gel.)

In data set [3] the test system is cerebral arteries of mice post-SAH. Put plainly: Arterial cross-sectional diameter by intraluminal arterial casting after murine SAH. It is filed as in vivo. The note with it: 72 hrs post-SAH. The protocol: Male mice (body weight=20-25 gm) were anesthetized with isoflurane and subjected to endovascular perforation of the right anterior cerebral artery just distal to the middle cerebral artery bifurcation. Mice were allowed to recover from anesthesia and randomly assigned to treatment ([…] MnTnHex-2-PyP^5+ twice per day, i.p. with treatment begun 60 min post-SAH, n=15) and vehicle (saline 0.1 ml twice a day, n=15) groups.
The mice were anesthetized and subjected to intraluminal arterial casting for later determination of arterial cross-sectional diameter. Subarachnoid clot size was graded using a standardized scoring system.
Three mice died in the vehicle group (2 died 3 days post-SAH, 1 died 2 days post-SAH). Neurologic scores in surviving mice and clot size were compared with the Mann-Whitney U statistic. Vessel diameters were compared with the Student's t test.

Data set [4] relates to subarachnoid hemorrhage (SAH) in mice. Put plainly: Neurologic evaluation after murine subarachnoid hemorrhage (endovascular perforation). The format is in vivo. An excerpt:
At completion of the predefined recovery interval, rats underwent a neurologic examination to evaluate sensorimotor function. The neurological scoring system evaluates four different functions (general status, simple motor deficit, complex motor deficit, and sensory deficit). The score given to each animal (by an observer blinded to group assignment) was the sum of all four individual scores, 0 being the minimum (best) score and 48 being the maximum (worst) score. This examination was developed combining features from several neurologic evaluations reported for rat MCAO and has been used in two long-term MCAO outcome studies to assess for differences in treatment outcome (Yokoo et al. Anesth Analg. 2004; 99:896-903; Sakai et al. Anesthesiology. 2007; 106:92-99; discussion 98-10.) Values from this scoring system correlate well with total infarct volume in rats allowed to survive 8 weeks post-MCAO (R2 value of 0.78, P=0.006, Sakai et al.) as well as 2 and 8 weeks post-MCAO (Yokoo et al.). […]
Seventy-two hrs post-SAH, mice were neurologically evaluated as described above, with the experimenter blinded to group assignment. Normal neurologic function was scored as 0 with the maximal deficit score=48. […]

For `CCCCCC[n+]1ccccc1-c1c2nc(c(-c3cccc[n+]3CCCCCC)c3ccc([n-]3)c(-c3cccc[n+]3CCCCCC)c3nc(c(-c4cccc[n+]4CCCCCC)c4ccc1[n-]4)C=C3)C=C2.[Mn+3]` [MnTnHex-2-PyP^5+, Mn(III) 5,10,15,20-tetrakis(N-n-hexylpyridinium-2-yl)porphyrin], the “TNF-α concentration in brain” value with TNF-α is on record as “decreased”. Further, the “cerebral infarct volume in the subcortex” value in data set [1] (225 μg/kg i.v. 5 min after reperfusion onset, then twice a day s.c., P=0.01) was “reduced”. Further, the “reduction in total infarct volume” value in data set [1] (225 μg/kg i.v. 5 min after reperfusion onset, then twice a day s.c., P=0.028) is 32%; in data set [1] (225 μg/kg intra-arterial plus s.c. 6 hrs after reperfusion onset, then twice daily s.c., P=0.03), 37%. Also, the “cerebral infarct volume in the cortex” value is on record as “reduced” in data set [1] (225 μg/kg i.v. 5 min after reperfusion onset, then twice a day s.c., P=0.05) and “reduced” in data set [1] (225 μg/kg intra-arterial plus s.c. 6 hrs after reperfusion onset, then twice daily s.c., P=0.01). For the same molecule, the “Infarct size in the subcortex” value in data set [1] (225 μg/kg intra-arterial plus s.c. 6 hrs after reperfusion onset, then twice daily s.c., P=0.58) is reported as “not changed”. Further, the Neurologic score entry in data set [2] (225 μg/kg i.v. 5 min after reperfusion onset, P=0.002 vs vehicle) is on record as “improved”; in data set [2] (225 μg/kg intra-arterial plus s.c. 6 hours after reperfusion onset, P=0.04 vs vehicle), “improved”. Further, the “IL-6 concentration in brain” value in the data set with IL-6 was “decreased”. Besides, the “NF-κB p65 nuclear translocation (immunoblot of nuclear samples)” value in the data set on NF-κB p65 is on record as “inhibition”. In addition, the “post-ischemic NF-κB DNA binding to a κB consensus oligo (EMSA)” value with NF-κB is recorded as “Marked reduction”. The “right anterior cerebral artery diameter (mean±SD)” value in data set [3] (vs vehicle 82±36 μm, P=0.0005) amounted to 130±19 μm. Also, in data set [3] (vs vehicle 83±33 μm, P=0.0033), the “right middle cerebral artery diameter (mean±SD)” value amounted to 123±29 μm. Also, in data set [3] (vs vehicle 109±35 μm, P=0.015), the “right internal carotid artery diameter (mean±SD)” value amounted to 143±30 μm. Besides, in data set [3] (vs vehicle 198±19 μm, P=0.723, no effect of treatment), the “basilar artery diameter (mean±SD)” value is recorded as 200±17 μm. In addition, the “neuroscore (median±interquartile range)” value in data set [4] (72 hrs post-SAH, 225 mg/kg twice per day i.p. begun 60 min post-SAH, n=14, 0=no deficit, maximal deficit 48, P=0.02 vs vehicle (14±21)) is recorded as 2.5±9. The “deaths in treatment group” value in data set [4] (murine SAH, 225 mg/kg twice per day i.p., n=15, three mice died in vehicle group) is on record as “One mouse in the MnTnHex-2-PyP^5+ group died at 2 days post-SAH”.
